Where two headings read alike, the source gives them in different places.
How the values were obtained:
HepG2 cells [1] = test: High-throughput transcriptomics (HTTr, TempO-Seq), HepG2, 24 h; format: cell-based, human; details: HepG2; for pod_httr_bifrost PoD: HTTr BIFROST PoD; for podl_path_minbmd PoD: HTTr minimum pathway BMD(L)
Experimental: (§1) HepG2, HepaRG, and MCF7 cells were treated with each compound for 24 h across a dose range of 7 concentrations and lysed using TempO-Seq lysis buffer (BioSpyder Technologies, proprietary kit, see [Middleton et al. 2022] for method details). Sequencing was performed using TempO-Seq (BioClavis) version 2 of the human whole transcriptome panel and analyzed as described previously in Middleton et al.

Tubulin (r) = test: IPP Tubulin binding; design: species or system rat; details: ligand/control Colchicine
[2] = system: Sodium channel protein type 5 subunit alpha (site 2), SCN5A (r); format: binding, rat
[3] = system: Gamma-aminobutyric acid receptor subunit alpha-1 BZD site, GABRA1A (r); format: binding, rat; details: control diazepam
[4] = system: Glutamate receptor ionotropic NMDA 1 non-selective, GRIN1 (r); details: control CGS 19755
[5] = molecular target: Voltage-dependent L-type Ca2+ channel (dihydropyridine site), CACNA1C (r) (Rattus norvegicus, UniProt P22002); format: binding
Chain of Voltage-dependent L-type Ca2+ channel (dihydropyridine site), CACNA1C (r) (P22002 whole entry): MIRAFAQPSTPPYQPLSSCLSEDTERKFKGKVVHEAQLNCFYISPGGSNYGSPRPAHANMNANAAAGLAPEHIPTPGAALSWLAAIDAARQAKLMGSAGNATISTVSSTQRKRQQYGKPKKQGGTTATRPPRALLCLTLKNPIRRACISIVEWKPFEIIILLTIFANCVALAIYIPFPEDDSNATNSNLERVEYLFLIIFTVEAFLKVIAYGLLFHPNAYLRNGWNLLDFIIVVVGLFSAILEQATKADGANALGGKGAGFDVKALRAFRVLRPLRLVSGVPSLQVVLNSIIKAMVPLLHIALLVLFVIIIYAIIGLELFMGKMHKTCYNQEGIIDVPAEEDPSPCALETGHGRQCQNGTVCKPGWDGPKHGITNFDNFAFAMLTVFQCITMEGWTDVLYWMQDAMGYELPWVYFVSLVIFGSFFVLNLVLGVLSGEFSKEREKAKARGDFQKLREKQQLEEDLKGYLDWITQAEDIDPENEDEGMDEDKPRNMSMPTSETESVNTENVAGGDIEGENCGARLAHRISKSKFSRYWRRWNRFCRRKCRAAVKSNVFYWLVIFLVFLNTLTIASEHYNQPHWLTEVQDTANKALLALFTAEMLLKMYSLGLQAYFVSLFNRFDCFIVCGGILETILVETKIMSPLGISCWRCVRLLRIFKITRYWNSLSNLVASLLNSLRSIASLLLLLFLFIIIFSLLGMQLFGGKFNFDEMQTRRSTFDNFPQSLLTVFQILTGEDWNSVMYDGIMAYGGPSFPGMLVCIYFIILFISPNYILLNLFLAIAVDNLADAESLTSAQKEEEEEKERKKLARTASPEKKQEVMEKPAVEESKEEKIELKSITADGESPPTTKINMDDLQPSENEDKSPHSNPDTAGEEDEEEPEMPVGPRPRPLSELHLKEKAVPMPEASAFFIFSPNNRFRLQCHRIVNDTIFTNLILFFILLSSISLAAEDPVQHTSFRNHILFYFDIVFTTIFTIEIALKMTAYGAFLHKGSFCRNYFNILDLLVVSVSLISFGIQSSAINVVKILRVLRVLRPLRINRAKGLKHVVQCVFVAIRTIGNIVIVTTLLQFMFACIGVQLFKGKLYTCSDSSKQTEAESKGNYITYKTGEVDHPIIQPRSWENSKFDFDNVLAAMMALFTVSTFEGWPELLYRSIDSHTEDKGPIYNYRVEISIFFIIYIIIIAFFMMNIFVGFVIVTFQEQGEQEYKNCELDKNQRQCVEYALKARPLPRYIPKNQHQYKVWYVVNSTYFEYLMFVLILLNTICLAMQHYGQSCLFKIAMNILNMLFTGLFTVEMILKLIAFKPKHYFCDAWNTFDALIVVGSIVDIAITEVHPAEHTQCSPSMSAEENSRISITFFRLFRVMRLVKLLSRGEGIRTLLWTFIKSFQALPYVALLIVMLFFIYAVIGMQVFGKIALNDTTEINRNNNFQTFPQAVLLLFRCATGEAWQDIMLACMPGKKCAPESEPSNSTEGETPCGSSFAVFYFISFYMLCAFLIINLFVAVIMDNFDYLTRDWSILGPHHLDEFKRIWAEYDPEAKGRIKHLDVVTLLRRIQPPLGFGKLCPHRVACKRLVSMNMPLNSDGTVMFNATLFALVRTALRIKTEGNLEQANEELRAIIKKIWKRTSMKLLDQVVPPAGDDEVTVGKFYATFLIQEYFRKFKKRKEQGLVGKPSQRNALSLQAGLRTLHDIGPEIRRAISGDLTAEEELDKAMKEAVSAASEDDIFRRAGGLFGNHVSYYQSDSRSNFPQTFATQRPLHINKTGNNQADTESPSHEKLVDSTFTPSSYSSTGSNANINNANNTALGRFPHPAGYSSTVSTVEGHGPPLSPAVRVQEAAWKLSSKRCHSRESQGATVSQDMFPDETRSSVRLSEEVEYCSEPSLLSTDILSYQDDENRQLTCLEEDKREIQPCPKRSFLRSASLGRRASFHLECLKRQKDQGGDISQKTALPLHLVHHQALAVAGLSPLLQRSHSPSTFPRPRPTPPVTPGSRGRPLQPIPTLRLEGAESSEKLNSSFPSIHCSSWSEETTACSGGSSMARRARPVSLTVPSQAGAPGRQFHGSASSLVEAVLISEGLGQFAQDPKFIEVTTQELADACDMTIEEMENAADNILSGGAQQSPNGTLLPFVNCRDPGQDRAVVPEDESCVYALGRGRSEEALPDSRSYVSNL

[6] = Assignment of risk classifications to benchmark chemical-exposure scenarios; details: for risk: from table S1
[7] = molecular target: T1, Adenosine receptor A2a, ADORA2A (h) (Homo sapiens, UniProt P29274); test: IPP ADORA2A binding (agonist radioligand); details: control NECA
T1 construct: purchased Eurofins Cerep (SafetyScreen44-based IPP panel)
T1 sequence (P29274 whole entry): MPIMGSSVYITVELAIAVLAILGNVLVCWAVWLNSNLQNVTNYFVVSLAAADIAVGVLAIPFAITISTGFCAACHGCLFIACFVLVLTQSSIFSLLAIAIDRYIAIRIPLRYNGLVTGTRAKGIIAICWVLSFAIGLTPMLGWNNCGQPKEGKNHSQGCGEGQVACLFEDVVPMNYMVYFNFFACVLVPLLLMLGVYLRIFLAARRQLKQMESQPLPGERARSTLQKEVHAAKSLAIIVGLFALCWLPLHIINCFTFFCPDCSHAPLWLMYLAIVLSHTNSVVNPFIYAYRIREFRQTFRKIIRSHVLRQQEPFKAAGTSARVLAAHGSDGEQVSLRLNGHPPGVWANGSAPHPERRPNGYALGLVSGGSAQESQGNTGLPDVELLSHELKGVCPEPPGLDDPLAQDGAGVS

HepaRG cells = test: High-throughput transcriptomics (HTTr, TempO-Seq), HepaRG, 24 h; format: cell-based, human; details: HepaRG; for pod_httr_bifrost PoD: HTTr BIFROST PoD; for podl_path_minbmd PoD: HTTr minimum pathway BMD(L)
Experimental: as §1

[8] = PBK level L2; taken or scaled from references (median where several); ref [6],[7],[10],[19]; cited from earlier work
human = details: cited from earlier work
[9] = system: 63 targets with known safety liabilities; test: In vitro pharmacological profiling (IPP) panel, screening at 10 or 100 µM and dose response, minimum IC50/AC50; format: biochemical; details: lowest AC50 across IPP panel (systemic targets); cell_type -; read-out: ipp_lowest_ac50_systemic PoD
[10] = system: Potassium Voltage-Gated Channel Kv non-selective, KCNQ1 (r); test: IPP KCNQ1 binding (antagonist radioligand); design: species or system rat; details: control α-dendrotoxin
MCF7 cells = test: High-throughput transcriptomics (HTTr, TempO-Seq), MCF7, 24 h; format: cell-based, human; details: MCF-7; for pod_httr_bifrost PoD: HTTr BIFROST PoD; for podl_path_minbmd PoD: HTTr minimum pathway BMD(L)
Experimental: as §1

HepG2 cells [11] = test: Cell stress panel (CSP), 24 h, 8 concentrations, BIFROST global PoD; format: cell-based; details: HepG2; cell stress panel PoD
Experimental: Compounds were tested using the previously developed cell stress panel ([Hatherell et al. 2020]) and the expanded biomarker panel outlined in Middleton et al. HepG2 cells were treated with all compounds for 24 h across 8 concentrations prior to biomarker analysis. The same plate layout and number of replicates (3 biological and 2 technical) were used as previously for each assay within the panel.

[12] = system: Thyroid hormone receptor alpha, THRA (h); test: IPP THRA coactivator recruitment (agonist); format: biochemical, human; details: agonist, T3
[13] = PBK level L2; single value or median; ref [2],[4],[6],[7],[8],[10],[11],[15],[18],[27],[34]; cited from earlier work
[14] = molecular target: T2, Estrogen receptor, ER1 (h) (Homo sapiens, UniProt P03372); test: IPP ER1 coactivator recruitment (antagonist); format: biochemical; details: estriol
T2 construct: purchased Eurofins Cerep (SafetyScreen44-based IPP panel)
T2 sequence (P03372 1-595): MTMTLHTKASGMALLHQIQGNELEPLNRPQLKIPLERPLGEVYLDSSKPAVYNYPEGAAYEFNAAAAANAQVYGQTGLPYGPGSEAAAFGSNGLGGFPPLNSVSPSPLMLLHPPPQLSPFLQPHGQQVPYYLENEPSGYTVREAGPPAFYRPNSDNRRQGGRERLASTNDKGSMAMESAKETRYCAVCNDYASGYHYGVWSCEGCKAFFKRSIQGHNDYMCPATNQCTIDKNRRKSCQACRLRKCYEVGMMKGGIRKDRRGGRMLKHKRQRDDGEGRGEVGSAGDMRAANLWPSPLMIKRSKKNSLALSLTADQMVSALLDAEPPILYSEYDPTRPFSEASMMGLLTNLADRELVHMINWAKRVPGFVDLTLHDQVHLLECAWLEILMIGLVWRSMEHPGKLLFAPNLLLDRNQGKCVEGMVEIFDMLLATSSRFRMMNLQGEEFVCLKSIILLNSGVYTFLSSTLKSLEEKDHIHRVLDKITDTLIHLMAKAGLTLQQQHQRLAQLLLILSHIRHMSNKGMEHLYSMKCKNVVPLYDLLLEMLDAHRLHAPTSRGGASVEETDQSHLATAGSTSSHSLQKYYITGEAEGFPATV

[15] = cited from earlier work
[16] = molecular target: Potassium voltage-gated channel subfamily H member 2 hERG, KCNH2 (h) (Homo sapiens, UniProt Q12809); details: [3H] Dofetilide, control Terfenadine
Chain of Potassium voltage-gated channel subfamily H member 2 hERG, KCNH2 (h) (Q12809 whole entry): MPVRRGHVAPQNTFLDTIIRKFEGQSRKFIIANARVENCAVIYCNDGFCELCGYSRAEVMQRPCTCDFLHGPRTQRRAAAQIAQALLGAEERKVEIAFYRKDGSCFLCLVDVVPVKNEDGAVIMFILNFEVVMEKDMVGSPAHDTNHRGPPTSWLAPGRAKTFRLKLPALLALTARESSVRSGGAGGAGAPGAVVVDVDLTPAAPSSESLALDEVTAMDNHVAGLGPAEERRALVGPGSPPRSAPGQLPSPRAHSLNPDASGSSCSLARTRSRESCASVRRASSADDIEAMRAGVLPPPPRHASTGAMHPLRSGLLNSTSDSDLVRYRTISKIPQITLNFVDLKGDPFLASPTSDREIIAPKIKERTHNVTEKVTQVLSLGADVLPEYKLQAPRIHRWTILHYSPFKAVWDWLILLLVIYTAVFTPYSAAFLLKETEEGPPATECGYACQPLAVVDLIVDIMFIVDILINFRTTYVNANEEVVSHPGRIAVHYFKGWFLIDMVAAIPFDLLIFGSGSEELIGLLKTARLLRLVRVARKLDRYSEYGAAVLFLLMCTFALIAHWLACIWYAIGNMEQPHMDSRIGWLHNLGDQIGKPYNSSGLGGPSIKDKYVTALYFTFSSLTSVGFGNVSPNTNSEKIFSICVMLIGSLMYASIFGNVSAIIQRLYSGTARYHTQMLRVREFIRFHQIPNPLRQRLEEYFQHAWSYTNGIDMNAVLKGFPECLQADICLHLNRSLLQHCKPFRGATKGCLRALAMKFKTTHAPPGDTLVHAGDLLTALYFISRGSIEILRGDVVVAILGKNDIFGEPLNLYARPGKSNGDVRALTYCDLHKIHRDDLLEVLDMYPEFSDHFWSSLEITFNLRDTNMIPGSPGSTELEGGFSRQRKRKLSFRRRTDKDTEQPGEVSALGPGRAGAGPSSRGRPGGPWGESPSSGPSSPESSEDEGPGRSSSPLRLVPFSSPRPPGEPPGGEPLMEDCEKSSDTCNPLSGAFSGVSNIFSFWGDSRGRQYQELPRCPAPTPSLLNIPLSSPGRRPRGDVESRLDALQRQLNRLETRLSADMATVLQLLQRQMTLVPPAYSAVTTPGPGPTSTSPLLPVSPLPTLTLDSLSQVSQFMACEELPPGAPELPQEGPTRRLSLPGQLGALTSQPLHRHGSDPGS

[17] = molecular target: T2, Estrogen receptor, ER1 (h); test: IPP ER1 coactivator recruitment (agonist); format: biochemical; details: estriol
dog = details: 52 weeks, ref ToxRefDB/Paul-Friedman et al. (2020)/regulatory opinions; cited from earlier work
[18] = human
rat = details: rat; 7 days; ref ToxRefDB/Paul-Friedman et al. (2020)/regulatory opinions; cited from earlier work
[19] = 100 uM, * denotes assay interference (2-Amino-6-chloro-4-nitrophenol, HC Red 3)
[20] = IPP screening at 10 uM, control veratridine

SMILES | pod_httr_bifrost PoD (HepG2 cells [1]) [µM] | podl_path_minbmd PoD (HepG2 cells [1]) [µM] | IPP screening %, Specific binding (Tubulin (r); 100 uM) [%] | Specific binding ([3]; IPP screening at 100 uM) [%] | Specific binding ([4]; IPP screening at 100 uM) [%] | Specific binding ([7]; IPP screening at 100 uM) [%] | pod_httr_bifrost PoD (HepaRG cells) [µM] | podl_path_minbmd PoD (HepaRG cells) [µM] | Intrinsic Liver Clearance [8] [L/h] | AC50 [9] [µM] | Specific binding ([10]; IPP screening at 100 uM) [%] | pod_httr_bifrost PoD (MCF7 cells) [µM] | podl_path_minbmd PoD (MCF7 cells) [µM] | pod_cell_stress PoD (HepG2 cells [11]) [µM] | IPP screening %, Coactivator recruitment [12, 19] [%] | Fup [13] [%] | Specific binding [2, 20] [%] | Specific binding ([3]; IPP screening at 10 uM) [%] | Specific binding ([4]; IPP screening at 10 uM) [%] | Specific binding ([7]; IPP screening at 10 uM) [%] | other results
CCOC(=O)c1ccc(N)cc1 [Benzocaine, Ethyl 4-aminobenzoate] | 9.489 | 242.367 | 15.0 | -9.1 | 11.5 | 36.2 | 103.552 | 413.121 | 7799.2 | 6 | 3.6 | 0.8705 | 19.4739 | 47.784 | 2.0 | 36.7 |  |  |  |  | Specific binding [2]: -0.8%; Specific binding [5]: 10.5%; Risk Classification ([6]; Dermal 20% in Gel): High risk; risk ([6]; Oral, 22mg/kg is the safety dose, Solution, Exp1): 1; adverse event reports related to methaemaglobinemia (human; of the 218 adverse event reports identified by Moore et al, ref [9]): Of the 218 adverse event reports identified by Moore et al, 136 were related to methaemaglobinemia with 2 cases resulting in deaths and 107 resulting in serious events.
CCN(CC)C(=O)c1cccc(C)c1 [DEET, N,N-Diethyl-3-methylbenzamide] | 16.9912 | 582.029 | -14.0 | 8.9 | 4.4 | 20.5 | 24.7921 | 567.13 |  | 53.7 | -4.9 | 67.2542 | 670.53 | 29.817 | 0.0 |  |  |  |  |  | Specific binding ([2]; IPP screening at 100 uM, control veratridine): 11.7%; IPP screening %, Coactivator recruitment [14, 19]: 0.0%; risk ([6]; Dermal, 15%, Sun lotion, Exp1): 0; NOAEL ([15]; 2-gen study, alpha-2-u nephropathy not relevant for humans, ref https://doi.org/10.1016/B978-0-12-374367-1.00098-7): Lowest human-relevant NOAEL was from a subchronic study. NOAEL of 25 mkd from 2-gen study appears to be based on alpha-2-u nephropathy which is not relevant for humans (https://doi.org/10.1016/B978-0-12-374367-1.001-7); PoD (NOAEL) ([15]; species '-', 364 days, ref ToxRefDB/Paul-Friedman et al. (2020)/regulatory opinions): 100 mg/kg bw/day; IPP screening %, Specific binding ([16]; 100 uM): -12.0%; IPP screening %, Coactivator recruitment [17, 19]: 2.0%
N#CC(CCc1ccc(Cl)cc1)(Cn1cncn1)c1ccccc1 (stereo not drawn) [Fenbuconazole, 4-(4-Chlorophenyl)-2-phenyl-2-[(1H-1,2,4-triazol-1-yl)methyl]butanenitrile] | 0.5034 | 16.5577 |  |  |  |  | 0.6247 | 4.705 | 10900 | 2.86 |  | 1.305 | 15.4204 | 2.477 |  | 2 | 100.8 | 3.5 | 38.6 | 34.0 | IPP screening %, Specific binding (Tubulin (r); 10 uM): -20.0%; PoD (NOAEL) (dog): 0.38 mg/kg bw/day; Specific binding ([5]; IPP screening at 10 uM, control nitrendipine): 97.8%; Risk Classification ([6]; Oral, residue, 0.006 mg/kg bw/day): Low risk; Risk Classification ([6]; Oral, residue, 73% of 0.006 mg/kg bw/day): Low risk; risk ([6]; Oral, 73% ADI of 0.006 mg/kg bw/day, Food residue, Exp3): 0; risk ([6]; Oral, ADI 0.006 mg/kg bw/day, Food residue, Exp2): 0; IPP screening %, Specific binding ([16]; 10 uM): 79.9%; Specific binding ([10]; IPP screening at 10 uM): 3.0%; IPP screening %, Coactivator recruitment ([12]; 10 uM): 2.0%
O=CCCCC=O [Glutaraldehyde, Pentanedial] |  |  |  |  |  |  |  |  |  |  |  |  |  |  |  |  | 13.2 | -5.0 | -4.1 | -3.4 | IPP screening %, Coactivator recruitment ([14]; 10 uM): -9.0%; risk [18]: 0; NOAEL (human; 1 year human study, ref not given): The lowest NOAEL from a rat repeat-dose study. Not there is also a 1 year human study with a NOAEL of 3 mkd.; IPP screening %, Specific binding ([16]; 10 uM): -1.1%; IPP screening %, Coactivator recruitment ([17]; 10 uM): 2.0%; PoD (NOAEL) (rat): 1 mg/kg bw/day; Specific binding ([10]; IPP screening at 10 uM): 5.2%; IPP screening %, Coactivator recruitment ([12]; 10 uM): 3.0%
